Laboratory results from patent US20230074545A1, “TREATMENT OF CANCER WITH CDK12/13 INHIBITORS” (Kinnate Biopharma Inc., priority 2019, published 2023).

Legend:
Test in all cases: Radiometric kinase panel
Assay type in all cases: biochemical
[1] = molecular target: T1, SRC (Homo sapiens, UniProt P12931)
T1 construct: either as full-length or enzymatically active fragments; purchased ProQinase GmbH (Reaction Biology)
In short: (§1)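 Activity was measured radiometrically from [gamma-33P]-ATP incorporation into substrate. The kinases were recombinant human GST- or His-tagged proteins, full-length or active fragments, expressed in Sf9 or E. coli. Compound in 10% DMSO was added before the enzyme/substrate mix, which started the reaction.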

[2] = molecular target: T2, PAK7 (Homo sapiens, UniProt Q9P286)
T2 construct: either as full-length or enzymatically active fragments; purchased ProQinase GmbH (Reaction Biology); host or cells: Sf9 insect cells or E. coli
In short: as §1

[3] = molecular target: T3, ASK1 (Homo sapiens, UniProt Q99683)
T3 construct: either as full-length or enzymatically active fragments; purchased ProQinase GmbH (Reaction Biology)
In short: as §1

[4] = molecular target: T4, MYLK3 (Homo sapiens, UniProt Q32MK0)
T4 construct: either as full-length or enzymatically active fragments; purchased ProQinase GmbH (Reaction Biology)
In short: as §1

[5] = molecular target: T5, CSK (Homo sapiens, UniProt P41240)
T5 construct: either as full-length or enzymatically active fragments; purchased ProQinase GmbH (Reaction Biology)
In short: as §1

[6] = molecular target: T6, WNK2 (Homo sapiens, UniProt Q9Y3S1)
T6 construct: either as full-length or enzymatically active fragments; purchased ProQinase GmbH (Reaction Biology)
In short: as §1

[7] = molecular target: T7, MEK2 (Homo sapiens, UniProt P36507)
T7 construct: either as full-length or enzymatically active fragments; purchased ProQinase GmbH (Reaction Biology)
In short: as §1

[8] = molecular target: T8, TSF1 (Homo sapiens, UniProt O75716)
T8 construct: either as full-length or enzymatically active fragments; purchased ProQinase GmbH (Reaction Biology)
In short: as §1

[9] = molecular target: T9, PRK1 (Homo sapiens, UniProt Q16512)
T9 construct: purchased ProQinase GmbH (Reaction Biology)
In short: as §1

[10] = molecular target: T10, PLK3 (Homo sapiens, UniProt Q9H4B4)
T10 construct: either as full-length or enzymatically active fragments; purchased ProQinase GmbH (Reaction Biology); host or cells: Sf9 insect cells or E. coli
In short: as §1

[11] = molecular target: T11, MKNK2 (Homo sapiens, UniProt Q9HBH9)
T11 construct: either as full-length or enzymatically active fragments; purchased ProQinase GmbH (Reaction Biology)
In short: as §1

[12] = molecular target: T12, EPHA2 (Homo sapiens, UniProt P29317)
T12 construct: either as full-length or enzymatically active fragments; purchased ProQinase GmbH (Reaction Biology)
In short: as §1

[13] = molecular target: T13, NEK7 (Homo sapiens, UniProt Q8TDX7)
T13 construct: either as full-length or enzymatically active fragments; purchased ProQinase GmbH (Reaction Biology); host or cells: Sf9 insect cells or E. coli
In short: as §1

[14] = molecular target: T14, PRKD2 (Homo sapiens, UniProt Q9BZL6)
T14 construct: either as full-length or enzymatically active fragments; purchased ProQinase GmbH (Reaction Biology); host or cells: Sf9 insect cells or E. coli
In short: as §1

[15] = molecular target: T15, EPHB3 (Homo sapiens, UniProt P54753)
T15 construct: either as full-length or enzymatically active fragments; purchased ProQinase GmbH (Reaction Biology)
In short: as §1

[16] = molecular target: T16, S6K (Homo sapiens, UniProt P23443)
T16 construct: either as full-length or enzymatically active fragments; purchased ProQinase GmbH (Reaction Biology); host or cells: Sf9 insect cells or E. coli (not specified per kinase)
In short: as §1

[17] = molecular target: T17, PKCiota (Homo sapiens, UniProt P41743)
T17 construct: either as full-length or enzymatically active fragments; purchased ProQinase GmbH (Reaction Biology)
In short: as §1

[18] = molecular target: T18, FYN (Homo sapiens, UniProt P06241)
T18 construct: purchased ProQinase GmbH (Reaction Biology)
In short: as §1

[19] = molecular target: T19, SAK (Homo sapiens, UniProt O00444)
T19 construct: either as full-length or enzymatically active fragments; purchased ProQinase GmbH (Reaction Biology)
In short: as §1

[20] = molecular target: T20, PKCeta (Homo sapiens, UniProt P24723)
T20 construct: either as full-length or enzymatically active fragments; purchased ProQinase GmbH (Reaction Biology); host or cells: Sf9 insect cells or E. coli
In short: as §1

[21] = molecular target: T21, JNK2 (Homo sapiens, UniProt P45984)
T21 construct: either as full-length or enzymatically active fragments; purchased ProQinase GmbH (Reaction Biology)
In short: as §1

[22] = molecular target: T22, TRKB (Homo sapiens, UniProt Q16620)
T22 construct: purchased ProQinase GmbH (Reaction Biology)
In short: as §1

[23] = molecular target: T23, CK1delta (Homo sapiens, UniProt P48730)
T23 construct: either as full-length or enzymatically active fragments; purchased ProQinase GmbH (Reaction Biology)
In short: as §1

[24] = molecular target: T24, GSG2 (Homo sapiens, UniProt Q8TF76)
T24 construct: either as full-length or enzymatically active fragments; purchased ProQinase GmbH (Reaction Biology); host or cells: Sf9 insect cells or E. coli
In short: as §1

[25] = molecular target: T25, EPHA8 (Homo sapiens, UniProt P29322)
T25 construct: either as full-length or enzymatically active fragments; purchased ProQinase GmbH (Reaction Biology); host or cells: Sf9 insect cells or E. coli (not specified per kinase)
In short: as §1

[26] = molecular target: T26, SLK (Homo sapiens, UniProt Q9H2G2)
T26 construct: either as full-length or enzymatically active fragments; purchased ProQinase GmbH (Reaction Biology)
In short: as §1

[27] = molecular target: T27, IRAK1 (Homo sapiens, UniProt P51617)
T27 construct: either as full-length or enzymatically active fragments; purchased ProQinase GmbH (Reaction Biology)
In short: as §1

[28] = molecular target: T28, SIK1 (Homo sapiens, UniProt P57059)
T28 construct: either as full-length or enzymatically active fragments; purchased ProQinase GmbH (Reaction Biology)
In short: as §1

[29] = molecular target: T29, PAK6 (Homo sapiens, UniProt Q9NQU5)
T29 construct: either as full-length or enzymatically active fragments; purchased ProQinase GmbH (Reaction Biology)
In short: as §1

[30] = molecular target: T30, NEK3 (Homo sapiens, UniProt P51956)
T30 construct: either as full-length or enzymatically active fragments; purchased ProQinase GmbH (Reaction Biology)
In short: as §1

[31] = molecular target: T31, DYRK1A (Homo sapiens, UniProt Q13627)
T31 construct: either as full-length or enzymatically active fragments; purchased ProQinase GmbH (Reaction Biology)
In short: as §1

[32] = molecular target: T32, PDGFRalpha (Homo sapiens, UniProt P16234)
T32 construct: either as full-length or enzymatically active fragments; purchased ProQinase GmbH (Reaction Biology)
In short: as §1

T10 sequence (Q9H4B4 whole entry, the tested form may be a part): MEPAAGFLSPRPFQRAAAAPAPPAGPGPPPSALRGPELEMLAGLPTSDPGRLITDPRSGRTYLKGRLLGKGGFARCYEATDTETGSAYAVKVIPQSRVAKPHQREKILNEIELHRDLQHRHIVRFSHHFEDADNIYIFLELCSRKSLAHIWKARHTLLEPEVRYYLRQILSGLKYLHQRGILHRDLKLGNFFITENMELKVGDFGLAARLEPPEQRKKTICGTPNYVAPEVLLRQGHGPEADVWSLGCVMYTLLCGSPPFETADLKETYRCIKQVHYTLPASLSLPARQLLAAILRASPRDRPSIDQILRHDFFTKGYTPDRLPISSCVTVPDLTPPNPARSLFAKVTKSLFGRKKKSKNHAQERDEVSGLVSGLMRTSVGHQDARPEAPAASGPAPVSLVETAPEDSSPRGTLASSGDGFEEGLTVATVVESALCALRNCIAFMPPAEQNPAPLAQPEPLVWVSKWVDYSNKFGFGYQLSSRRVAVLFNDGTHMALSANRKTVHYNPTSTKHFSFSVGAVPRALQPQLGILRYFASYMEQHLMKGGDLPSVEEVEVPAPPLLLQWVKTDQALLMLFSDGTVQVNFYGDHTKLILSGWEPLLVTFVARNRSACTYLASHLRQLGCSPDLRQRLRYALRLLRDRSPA
T2 sequence (Q9P286 whole entry, the tested form may be a part): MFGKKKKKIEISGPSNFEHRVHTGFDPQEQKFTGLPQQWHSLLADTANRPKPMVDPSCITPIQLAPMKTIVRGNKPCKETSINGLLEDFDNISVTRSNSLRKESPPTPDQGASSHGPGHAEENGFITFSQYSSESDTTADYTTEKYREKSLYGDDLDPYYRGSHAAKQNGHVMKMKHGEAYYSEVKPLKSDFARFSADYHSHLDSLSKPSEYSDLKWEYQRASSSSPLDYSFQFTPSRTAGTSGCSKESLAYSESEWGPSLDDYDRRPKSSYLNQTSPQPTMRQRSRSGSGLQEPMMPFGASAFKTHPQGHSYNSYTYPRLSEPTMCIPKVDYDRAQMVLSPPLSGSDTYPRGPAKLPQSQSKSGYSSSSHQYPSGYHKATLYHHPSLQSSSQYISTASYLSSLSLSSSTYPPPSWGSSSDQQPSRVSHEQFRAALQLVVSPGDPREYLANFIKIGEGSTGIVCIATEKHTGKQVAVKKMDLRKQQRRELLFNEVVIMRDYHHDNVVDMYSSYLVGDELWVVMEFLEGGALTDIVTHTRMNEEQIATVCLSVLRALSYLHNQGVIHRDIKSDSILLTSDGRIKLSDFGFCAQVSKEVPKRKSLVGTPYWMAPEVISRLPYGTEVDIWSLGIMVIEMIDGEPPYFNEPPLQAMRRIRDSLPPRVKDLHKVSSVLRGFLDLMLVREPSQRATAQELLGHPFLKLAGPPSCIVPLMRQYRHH
T18 sequence (P06241 whole entry): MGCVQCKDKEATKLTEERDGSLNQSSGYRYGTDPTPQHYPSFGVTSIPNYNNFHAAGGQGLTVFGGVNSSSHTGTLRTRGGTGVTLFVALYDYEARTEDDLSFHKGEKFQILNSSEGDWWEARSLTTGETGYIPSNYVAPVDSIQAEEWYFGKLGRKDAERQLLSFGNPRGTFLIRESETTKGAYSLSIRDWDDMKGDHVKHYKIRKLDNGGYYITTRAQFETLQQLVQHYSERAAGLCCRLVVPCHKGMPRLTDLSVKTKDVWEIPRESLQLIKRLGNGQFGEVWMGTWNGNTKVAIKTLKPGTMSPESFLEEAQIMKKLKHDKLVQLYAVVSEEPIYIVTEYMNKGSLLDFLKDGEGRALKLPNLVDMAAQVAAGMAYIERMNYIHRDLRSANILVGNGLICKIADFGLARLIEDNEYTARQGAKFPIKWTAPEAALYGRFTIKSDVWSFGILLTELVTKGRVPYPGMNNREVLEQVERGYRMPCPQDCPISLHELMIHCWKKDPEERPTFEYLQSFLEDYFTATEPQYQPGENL
T13 sequence (Q8TDX7 whole entry, the tested form may be a part): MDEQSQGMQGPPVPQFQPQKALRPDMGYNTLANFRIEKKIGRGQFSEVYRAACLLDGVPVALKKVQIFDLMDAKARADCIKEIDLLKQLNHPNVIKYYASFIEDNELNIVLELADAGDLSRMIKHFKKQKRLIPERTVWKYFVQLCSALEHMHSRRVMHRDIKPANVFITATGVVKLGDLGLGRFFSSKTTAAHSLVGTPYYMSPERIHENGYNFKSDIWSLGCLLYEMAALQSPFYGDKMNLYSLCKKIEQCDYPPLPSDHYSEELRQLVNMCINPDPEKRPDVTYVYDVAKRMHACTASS
T4 sequence (Q32MK0 whole entry, the tested form may be a part): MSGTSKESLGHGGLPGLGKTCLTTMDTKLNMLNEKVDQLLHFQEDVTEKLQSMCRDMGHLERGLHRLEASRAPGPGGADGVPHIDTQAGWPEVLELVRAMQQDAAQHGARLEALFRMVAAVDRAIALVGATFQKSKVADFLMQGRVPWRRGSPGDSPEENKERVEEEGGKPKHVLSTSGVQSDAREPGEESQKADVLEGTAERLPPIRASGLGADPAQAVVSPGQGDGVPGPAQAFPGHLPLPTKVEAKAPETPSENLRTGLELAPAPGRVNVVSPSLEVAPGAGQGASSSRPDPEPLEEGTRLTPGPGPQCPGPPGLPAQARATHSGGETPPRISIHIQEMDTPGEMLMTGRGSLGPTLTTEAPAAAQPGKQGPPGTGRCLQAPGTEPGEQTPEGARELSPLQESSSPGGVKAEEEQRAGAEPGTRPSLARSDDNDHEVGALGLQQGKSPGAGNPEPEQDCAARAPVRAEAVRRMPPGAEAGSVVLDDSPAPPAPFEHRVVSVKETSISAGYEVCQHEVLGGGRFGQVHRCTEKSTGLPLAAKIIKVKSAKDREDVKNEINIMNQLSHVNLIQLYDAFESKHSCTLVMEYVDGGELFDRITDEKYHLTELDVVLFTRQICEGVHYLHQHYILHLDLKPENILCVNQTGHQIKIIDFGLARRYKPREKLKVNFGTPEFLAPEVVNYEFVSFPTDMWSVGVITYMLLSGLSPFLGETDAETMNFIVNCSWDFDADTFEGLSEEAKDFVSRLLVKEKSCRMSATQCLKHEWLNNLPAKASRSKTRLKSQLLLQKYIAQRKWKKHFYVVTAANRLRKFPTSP
T32 sequence (P16234 24-1089): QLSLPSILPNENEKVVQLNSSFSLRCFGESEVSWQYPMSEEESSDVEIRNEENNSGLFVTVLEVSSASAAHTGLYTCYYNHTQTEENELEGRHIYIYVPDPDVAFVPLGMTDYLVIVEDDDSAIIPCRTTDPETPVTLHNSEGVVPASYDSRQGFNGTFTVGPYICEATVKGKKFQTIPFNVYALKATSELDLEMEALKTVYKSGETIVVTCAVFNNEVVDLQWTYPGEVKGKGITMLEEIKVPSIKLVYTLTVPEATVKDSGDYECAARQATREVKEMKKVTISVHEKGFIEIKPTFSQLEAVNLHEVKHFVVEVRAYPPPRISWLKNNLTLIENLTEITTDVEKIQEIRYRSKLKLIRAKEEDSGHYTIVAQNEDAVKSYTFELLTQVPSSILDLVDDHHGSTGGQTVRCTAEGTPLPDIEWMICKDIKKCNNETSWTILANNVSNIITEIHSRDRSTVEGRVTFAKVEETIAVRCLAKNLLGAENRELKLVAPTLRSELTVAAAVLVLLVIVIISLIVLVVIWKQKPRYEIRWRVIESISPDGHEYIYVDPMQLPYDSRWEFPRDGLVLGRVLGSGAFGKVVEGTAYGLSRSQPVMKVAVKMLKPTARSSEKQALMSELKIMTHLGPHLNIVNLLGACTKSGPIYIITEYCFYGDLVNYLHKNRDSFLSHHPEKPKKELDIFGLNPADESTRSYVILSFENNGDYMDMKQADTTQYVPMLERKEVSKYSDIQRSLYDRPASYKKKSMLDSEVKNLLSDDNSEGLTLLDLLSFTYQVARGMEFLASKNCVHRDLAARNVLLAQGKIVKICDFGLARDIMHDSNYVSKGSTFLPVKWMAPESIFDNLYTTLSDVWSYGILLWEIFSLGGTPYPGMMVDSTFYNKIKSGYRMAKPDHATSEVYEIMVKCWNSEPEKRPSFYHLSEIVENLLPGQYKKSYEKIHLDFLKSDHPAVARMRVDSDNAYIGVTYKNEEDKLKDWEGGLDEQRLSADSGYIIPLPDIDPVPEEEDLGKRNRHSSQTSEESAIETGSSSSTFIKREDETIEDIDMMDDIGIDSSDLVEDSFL
T28 sequence (P57059 whole entry, the tested form may be a part): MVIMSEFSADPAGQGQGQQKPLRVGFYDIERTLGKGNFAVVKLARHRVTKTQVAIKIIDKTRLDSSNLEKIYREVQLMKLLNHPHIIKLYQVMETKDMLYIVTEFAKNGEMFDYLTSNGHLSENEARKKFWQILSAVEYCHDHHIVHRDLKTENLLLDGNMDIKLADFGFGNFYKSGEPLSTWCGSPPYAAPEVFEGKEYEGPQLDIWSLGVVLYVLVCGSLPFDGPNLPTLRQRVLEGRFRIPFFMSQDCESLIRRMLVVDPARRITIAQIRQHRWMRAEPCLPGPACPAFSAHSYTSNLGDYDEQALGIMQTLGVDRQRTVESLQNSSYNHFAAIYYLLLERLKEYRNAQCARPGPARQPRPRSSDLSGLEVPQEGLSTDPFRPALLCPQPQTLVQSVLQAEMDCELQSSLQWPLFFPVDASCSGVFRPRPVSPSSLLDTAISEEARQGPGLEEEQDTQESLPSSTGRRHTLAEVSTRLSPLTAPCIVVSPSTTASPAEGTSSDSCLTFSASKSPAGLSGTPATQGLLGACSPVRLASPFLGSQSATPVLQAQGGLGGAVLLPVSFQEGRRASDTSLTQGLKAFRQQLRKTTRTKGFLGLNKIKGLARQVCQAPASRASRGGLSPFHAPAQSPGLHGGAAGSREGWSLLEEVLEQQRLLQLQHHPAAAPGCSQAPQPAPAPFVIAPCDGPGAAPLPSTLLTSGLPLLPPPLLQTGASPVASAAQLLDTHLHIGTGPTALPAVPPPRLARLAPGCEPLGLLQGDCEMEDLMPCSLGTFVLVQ

## C=CC(=O)Nc1ccc(C(=O)N2CC[C@@H](Nc3ncc(C#N)cn3)C2)cc1 [Compound 4, (R)-N-(4-(3-((5-cyanopyrimidin-2-yl)amino)pyrrolidine-1-carbonyl)phenyl)acrylamide]
[1]
  inhibition at 1 µM: -5%
[2]
  inhibition at 1 µM: 12%
[3]
  inhibition at 1 µM: 7%
[4]
  inhibition at 1 µM: 4%
[5]
  inhibition at 1 µM: 7%
[6]
  inhibition at 1 µM: -8%
[7]
  inhibition at 1 µM: 3%
[8]
  inhibition at 1 µM: 6%
[9]
  inhibition at 1 µM: -1%
[10]
  inhibition at 1 µM: 13%
[11]
  inhibition at 1 µM: 4%
[12]
  inhibition at 1 µM: -5%
[13]
  inhibition at 1 µM: -15%
[14]
  inhibition at 1 µM: 12%
[15]
  inhibition at 1 µM: 5%
[16]
  inhibition at 1 µM: 9%
[17]
  inhibition at 1 µM: -4%
[18]
  inhibition at 1 µM: -2%
[19]
  inhibition at 1 µM: -11%
[20]
  inhibition at 1 µM: -14%
[21]
  inhibition at 1 µM: 6%
[22]
  inhibition at 1 µM: -1%
[23]
  inhibition at 1 µM: -7%
[24]
  inhibition at 1 µM: 13%
[25]
  inhibition at 1 µM: 9%
[26]
  inhibition at 1 µM: 21%
[27]
  inhibition at 1 µM: 2%
[28]
  inhibition at 1 µM: 7%
[29]
  inhibition at 1 µM: 4%
[30]
  inhibition at 1 µM: 6%
[31]
  inhibition at 1 µM: 7%
[32]
  inhibition at 1 µM: 7%
